The values that follow come from patent publication US4683291A, “Platelet binding inhibitors” (Scripps Clinic and Research Foundation, priority 1985, dated 1987).

The term pIC50 denotes the IC50 on a negative log10 scale, so that one unit is a factor of ten.

pIC50: −log10 of the molar value. Where two headings read alike, the source gives them in different places. Non-standard residues stand in square brackets, D forms with d. Residues, ends and D or L forms follow the SMILES beside them. No end group written: not given here.

Assay [1] concerns the target T1, platelet receptor, the GPIIb/IIIa complex (Homo sapiens, UniProt P05106+P08514).
T1 construct: Platelets were isolated from normal platelet-rich plasma and washed by the albumin density gradient technique; endogenous in cells; host or cells: washed platelets from normal platelet-rich plasma, thrombin-stimulated
Description: Inhibition of 125I-fibrinogen binding to thrombin-stimulated washed platelets. Here is the method:
Peptides were stored in the lyophilized state and dissolved in distilled water immediately before use. One-tenth volume of 10x modified Tyrode buffer was added before mixing with the platelet suspension. Platelets were isolated from normal platelet-rich plasma and washed by the albumin density gradient technique. Fibrinogen was purified following precipitation with glycine or polyethylene glycol 1000, and radiolabeled with ^125 I using Iodogen (Pierce). […] In each experimental mixture, platelets in modified Tyrode buffer were stimulated with human alpha-thrombin at 22°-25° C. for 10 minutes (3.125×10^11 platelets/L and 0.25 NIHU/ml of thrombin). Hirudin (Sigma) was then added at a 25-fold excess (V/V) for 5 minutes before the addition of ^125 I-fibrinogen and the peptide was then tested. After these additions, the final platelet count in the mixture was 1×10^11 /L, and fibrinogen was 0.176 micromolar. Separation of bound from free ligand was achieved by centrifuging 50 microliters of the mixture through 200 microliters of 20% sucrose at 12,000 g for 4 minutes. The platelet pellet was separated from the rest of the mixture, and the platelet-bound radioactivity was then determined. Non-specific binding was measured in mixtures containing a 75-fold excess of unlabeled fibrinogen. […] Each peptide was tested at six different concentrations, and the IC50 was derived from a plot of residual fibrinogen binding versus log of peptide concentration.

For assay [2], the target named is T1, platelet receptor, the GPIIb/IIIa complex. The note with it: increasing fibrinogen concentrations; earlier findings; cited from earlier work.
The mark [3] stands for this setting: read-out: Typical IC50 (micromolar) IC50.

Turning to “HHKRKRKQRGDV [His--His--Lys--Arg--Lys--Arg--Lys--Gln--Arg--Gly--Asp--Val]”, in assay [1] (setting [3]), the pIC50 is 5.48.
In the case of “HHLRGKKQRGDV [His--His--Leu--Arg--Gly--Lys--Lys--Gln--Arg--Gly--Asp--Val]”, the pIC50 in assay [1] (setting [3]) was 4.95.
Still for that read-out and setting: next, “HHLGGKKQRGDV [His--His--Leu--Gly--Gly--Lys--Lys--Gln--Arg--Gly--Asp--Val]”: 4.88; “HHRRRRRRRGDV [His--His--Arg--Arg--Arg--Arg--Arg--Arg--Arg--Gly--Asp--Val]”: 5.89; `CC(C)[C@H](NC(=O)[C@H](CC(=O)O)NC(=O)CNC(=O)[C@H](CCCNC(=N)N)NC(=O)[C@H](CCC(N)=O)NC(=O)[C@H](CCCCN)NC(=O)[C@H](CCCNC(=N)N)NC(=O)[C@H](CCCCN)NC(=O)[C@H](CCCNC(=N)N)NC(=O)[C@@H](C)NC(=O)[C@H](Cc1c[nH]cn1)NC(=O)[C@@H](N)Cc1c[nH]cn1)C(=O)O` [His--His--D-Ala--Arg--Lys--Arg--Lys--Gln--Arg--Gly--Asp--Val] (H-HH[dA]RKRKQRGDV-OH): 5.66.
Still for that read-out and setting: next, “KKKKKKKKRGDV [Lys--Lys--Lys--Lys--Lys--Lys--Lys--Lys--Arg--Gly--Asp--Val]”: 5.39; “HHLRGRKQRGDV [His--His--Leu--Arg-- Gly--Arg--Lys--Gln--Arg--Gly--Asp--Val]”: 5.21.
With HHLGGAKQAGDV [reference compound], the pIC50 in assay [1] (published peptides, read-out: IC50) was 4.08 to 4.32.
`CC(C)[C@H](NC(=O)[C@H](CC(=O)O)NC(=O)CNC(=O)[C@H](CCCNC(=N)N)NC(=O)[C@H](CCC(N)=O)NC(=O)[C@H](CCCCN)NC(=O)[C@H](CCCNC(=N)N)NC(=O)CNC(=O)CNC(=O)[C@@H](C)NC(=O)[C@H](Cc1c[nH]cn1)NC(=O)[C@@H](N)Cc1c[nH]cn1)C(=O)O` [His--His--D-Ala--Gly--Gly--Arg--Lys--Gln--Arg--Gly--Asp--Val] (H-HH[dA]GGRKQRGDV-OH): the negative logarithm of the IC50 (pIC50) in assay [1] (setting [3]) was 5.55.
The same measure, in the same setting: with “HHLGGAKQRGDV [His--His--Leu--Gly--Gly--Ala--Lys--Gln--Arg--Gly--Asp--Val]” the figure was 4.84; with “HHKRKRKRRGDS [His--His--Lys--Arg--Lys--Arg--Lys--Arg--Arg--Gly--Asp--Ser]”, 5.51; with “HHKKKKKKRGDV [His--His--Lys--Lys--Lys--Lys--Lys--Lys--Arg--Gly--Asp--Val]”, 5.80.
As for “Gly-Pro-Arg-Pro (GPRP; printed: Gly-Pro-Arg-Pro)”, the “inhibitory effect on increasing the fibrinogen concentration” value in assay [2] was “increase with increasing fibrinogen concentrations”.
On to “HHLRKRKQRGDV [His--His--Leu--Arg--Lys--Arg--Lys--Gln--Arg--Gly--Asp--Val]”, for which, in assay [1] (setting [3]), the pIC50 is 5.36.
With “HHLGRRKQRGDV [His--His--Leu--Gly--Arg--Arg--Lys--Gln--Arg--Gly--Asp--Val]”, the pIC50 in assay [1] (setting [3]) was 5.27.
For the compound “HHLGGRKQRGDV [His--His--Leu--Gly--Gly--Arg--Lys--Gln--Arg--Gly--Asp--Val]”, the pIC50 in assay [1] (setting [3]) is 5.20.
Consider “KRKRKRKRRGDV [Lys--Arg--Lys--Arg--Lys--Arg--Lys--Arg--Arg--Gly--Asp--Val]”, for which, in assay [1] (fibrinogen-platelet binding, read-out: IC50), the negative-log IC50 (pIC50) is 6.40.
With “RRRRRRRRRGDV [Arg--Arg--Arg--Arg--Arg--Arg--Arg--Arg--Arg--Gly--Asp--Val]”, the negative-log IC50 (pIC50) in assay [1] (setting [3]) is 6.70.
For “HHKRKRKQRGDS [His--His--Lys--Arg--Lys--Arg--Lys--Gln--Arg--Gly--Asp--Ser]”, in assay [1] (setting [3]), the negative-log IC50 (pIC50) is 5.21.
